4 molecules from patent publication US9409952B2, “Peptide-compound cyclization method” (Chugai Seiyaku Kabushiki Kaisha, priority 2011, dated 2016) can be followed below.

A short description of series [1]: Metabolic stability in mouse hepatic microsome. Format: in vitro ADME. The conditions noted are these: for Hepatic Microsome CLh, int (Mouse) In the absence of NADPH / microsomal CLint at 1 uM: 0.5 mg protein/mL, 1 uM, 30 minutes; for Hepatic Microsome CLh, int (Mouse) In the absence of NADPH: without NADPH; for microsomal CLint at 1 uM: male, mouse, liver microsomes, pH 7.4, with NADPH, read-out: Hepatic Microsome CLh, int (Mouse) In the presence of NADPH. As to the method:
(§1) The obtained compound was metabolically reacted at a concentration of 2 uM with mouse serum (male/female mixed, Valley Biomedical, USA) (adjusted to pH 7.4 with 33.5 mM HEPES buffer) for two hours. Deproteinization treatment with acetonitrile was provided over time, the amount of the remaining unchanged compound was analyzed using LC/MS, and the metabolic half-life (t1/2) was calculated. A microsome solution prepared at 0.5 mg protein/mL from mouse hepatic microsome and small intestinal microsome (male, XENOTECH, USA) using 100 mM phosphate buffer (pH 7.4) was metabolically reacted with the compound at a concentration of 1 uM for 30 minutes in the presence or absence of NADPH. Deproteinization treatment with acetonitrile was provided over time, the amount of the remaining unchanged compound was analyzed using LC/MS, and the hepatic-intrinsic clearance (CLh, int) and the small intestinal-intrinsic clearance (CLg, int) were calculated (Table 7). Such peptides were sufficiently slowly metabolized by hydrolysis with peptidases or the like in mouse sera and microsomes, contrary to peptides composed of natural amino acids having low lipophilicity.
Metabolic stability tests were carried out in the same manner as shown in 2-1.

Series [2] in a line: Serum stability test in mouse serum. It is filed as in vitro ADME. The conditions noted are these: both sexes, pH 7.4, two hours, read-out: Serum stability t1/2 (Mouse). The method, then:
as §1

Molecules are shown by their SMILES. Positions of bridges follow the written chain, without caps; N, C: chain ends. Non-standard residues stand in square brackets, D forms with d. Residues, ends and D or L forms follow the SMILES beside them. *: point of attachment. NMeF = CN[C@@H](Cc1ccccc1)C(=O)O; NMeI = CC[C@H](C)[C@H](NC)C(=O)O; NMeL = CN[C@@H](CC(C)C)C(=O)O; NMeA = CN[C@@H](C)C(=O)O; Piperidide = C1CCN(*)CC1; Sar = CNCC(=O)O; tBu = CC(C)(C)* Bounds are passed on as bounds.

For the molecule `CC[C@H](C)[C@H]1C(=O)N[C@H](C(=O)N2CCCCC2)CSCC(=O)N[C@@H](Cc2ccccc2)C(=O)N(C)[C@@H](CC(C)C)C(=O)N[C@@H]([C@@H](C)O)C(=O)N(C)CC(=O)N(C)[C@@H](CC(C)C)C(=O)N[C@@H](COC(C)(C)C)C(=O)N1C` [Compound P-107, Ac*-Phe-MeLeu-Thr-MeGly-MeLeu-Ser(tBu)-MeIle-Cys*-piperidine] ({CH2CO}-F[NMeL]T[Sar][NMeL]S(tBu)[NMeI]C-Piperidide; thioether N-8), in series [1], the “Hepatic Microsome CLh, int (Mouse) In the absence of NADPH” value (“Hepatic Microsome CLh, int … of NADPH” below) worked out at 10.1 ul/min/mg Protein and the microsomal CLint at 1 uM was found to be 111 µL/min/mg. For the same molecule, the half-life at 2 uM in series [2] is more than 60 h.

`CC(C)C[C@H]1C(=O)N[C@@H](COC(C)(C)C)C(=O)N[C@H](C(=O)N2CCCCC2)CSCC(=O)N(C)[C@@H](Cc2ccccc2)C(=O)N(C)[C@@H](C)C(=O)N(C)[C@@H](Cc2ccccc2)C(=O)N(C)[C@@H](CC(C)C)C(=O)N[C@@H]([C@@H](C)O)C(=O)N(C)CC(=O)N1C` [Compound P-108, Ac*-MePhe-MeAla-MePhe-MeLeu-Thr-MeGly-MeLeu-Ser(tBu)-Cys*-piperidine] ({CH2CO}-[NMeF][NMeA][NMeF][NMeL]T[Sar][NMeL]S(tBu)C-Piperidide; thioether N-9): in series [1], the “Hepatic Microsome CLh, int … of NADPH” value was found to be 5.2 ul/min/mg Protein and the microsomal CLint at 1 uM is 72.3 µL/min/mg. The half-life at 2 uM in series [2] is more than 60 h.

As for `CC(C)C[C@H]1C(=O)N[C@@H](COC(C)(C)C)C(=O)N[C@H](C(=O)N2CCCCC2)CSCC(=O)N(C)[C@@H](Cc2ccccc2)C(=O)N(C)[C@@H](C)C(=O)N[C@@H](Cc2ccccc2)C(=O)N(C)[C@@H](CC(C)C)C(=O)N[C@@H]([C@@H](C)O)C(=O)N(C)CC(=O)N1C` [Compound P-110, Ac*-MePhe-MeAla-Phe-MeLeu-Thr-MeGly-MeLeu-Ser(tBu)-Cys*-piperidine] ({CH2CO}-[NMeF][NMeA]F[NMeL]T[Sar][NMeL]S(tBu)C-Piperidide; thioether N-9), in series [1], the “Hepatic Microsome CLh, int … of NADPH” value was 6.1 ul/min/mg Protein and the microsomal CLint at 1 uM turned out to be 163 µL/min/mg. Also, the half-life at 2 uM in series [2] was more than 60 h.

With `CC[C@H](C)[C@H]1C(=O)N[C@H](C(=O)N2CCCCC2)CSCC(=O)N(C)[C@@H](C)C(=O)N[C@@H](Cc2ccccc2)C(=O)N(C)[C@@H](CC(C)C)C(=O)N[C@@H]([C@@H](C)O)C(=O)N(C)CC(=O)N(C)[C@@H](CC(C)C)C(=O)N[C@@H](COC(C)(C)C)C(=O)N1C` [Compound P-111, Ac*-MeAla-Phe-MeLeu-Thr-MeGly-MeLeu-Ser(tBu)-MeIle-Cys*-piperidine] ({CH2CO}-[NMeA]F[NMeL]T[Sar][NMeL]S(tBu)[NMeI]C-Piperidide; thioether N-9), in series [1], the “Hepatic Microsome CLh, int … of NADPH” value is on record as 0 ul/min/mg Protein and the microsomal CLint at 1 uM is 76.4 µL/min/mg. Besides, in series [1] (Table 9, thioether versus sulfoxide), the “Mouse Hepatic Microsome CLh, int” value came out at 76.4 ul/min/mg Protein. In series [2], the half-life at 2 uM was more than 60 h.
